# Test results: patent US20230226227A1, “PROSTATE SPECIFIC MEMBRANE ANTIGEN (PSMA) LIGANDS AND USES THEREOF” (ADVANCED ACCELERATOR APPLICATIONS (ITALY) SRL, priority 2019, published 2023)
# “Also recorded” adds a separate entry of the source.
# Columns and labels:
# [1] = Behavioral Irwin test after single intravenous administration; format: in vivo, rat
# Procedure: The aim of this study was to evaluate the possible effects of ^175Lu-PSMA-R2, at doses of 0.2, 0.6 and 2.0 mg/kg, on general behavior parameters in the rat after intravenous administration, according to the study design in Table 2.
# The following parameters were evaluated: mortality, body weight, clinical signs and Irwin test.
# The Irwin test was performed at the following intervals after dosing: 5, 15, 30 minutes and 1, 2 and 24 hours.
# [2] = Effects on cardiovascular function of the conscious telemetered minipig; format: in vivo; details: iv 0.058, 0.175, 0.58 mg/kg
# Procedure: The purpose of this study was to investigate the potential effects of ^175Lu-PSMA-R2 on the cardiovascular functions of the conscious telemetered male minipig following intravenous administration at doses of 0.058, 0.175 and 0.583 mg/kg.
# The test item or vehicle was administered intravenously into the external auricular vein at a fixed injection rate of 4 mL/min. The dose was administered to each animal at a dose volume of 1 mL/kg body weight.
# At 7-day intervals, each animal received the vehicle or one of the three doses of the test item, following the crossover design described in Table 4.
# Systolic, diastolic and mean blood pressure (SBP, DBP and MBP), heart rate (HR), body temperature and Lead II electrocardiogram were recorded continuously, from 1 hour before administration up to 24 h after dosing. Haemodynamic and electrocardiographic data were reported at pre-dose and at 5, 15, 30 minutes and 1, 2, 4, 8 and 24 hours post-dose.
# [3] = Single dose toxicity study in the minipig; format: in vivo, Göttingen minipigs
# Source text: A two-week treatment-free period was allowed after administration.
# All animals were administrated intravenously. Plasma samples were collected at Day 1 for toxicokinetic analysis.
# Mortality, clinical signs, body weight, food consumption, clinical pathology investigations, ophthalmoscopy, ECG evaluations, and macroscopic observations were indexed at necropsy. Then selected organs were weighed and tissues collected.
# In addition, plasma samples were collected on Day 1 for toxicokinetic analysis.
# [4] = test system: Escherichia coli WP2 uvrA; experiment: Bacterial mutation assay, Escherichia coli; format: cell-based
# Procedure: The test item ^175Lu-labelled PSMA-R2 solution was examined for the ability to induce gene mutations in tester strains of Salmonella typhimurium and Escherichia coli, as measured by reversion of auxotrophic strains to prototrophy. The five tester strains TA1535, TA1537, TA98, TA100 and WP2 uvrA were used. Experiments were performed both in the absence and presence of metabolic activation, using liver S9 fraction from rats pre-treated with phenobarbital and 5,6-benzoflavone.
# The test item was used as a solution in sodium acetate buffer and all concentrations in this report are expressed in terms of active ingredient. The test item ^175Lu-labelled PSMA-R2 solution was assayed in the toxicity test at a maximum feasible concentration of 1000 µg/plate and at four lower concentrations spaced at approximately half-log intervals: 316, 100, 31.6 and 10.0 µg/plate.
# On the basis of the results obtained in the preliminary toxicity test, in the Main Assay, using the plate incorporation method, the test item was assayed with all tester strains at the following dose levels: 1000, 500, 250, 125 and 62.5 µg/plate. […] Since a clear negative result was obtained, no further experiment was undertaken.
# [5] = Plasma protein binding by ultrafiltration, human plasma; format: in vitro ADME; details: for fu (%) fraction unbound: human plasma
# Procedure: (§1) Plasma protein binding of PSMA-R2 and ^175Lu-PSMA-R2 has been determined by ultrafiltration method, after incubation of the compounds in human, mouse, rat and minipig plasma at two different concentrations: 1 and 5 µg/mL.
# [6] = Plasma protein binding by ultrafiltration, minipig plasma; format: in vitro ADME
# Procedure: as §1
# [7] = single iv 0.175, 0.58, 1.75 mg/kg
smiles,measurement,setting,value
O=C(O)CCC(NC(=O)NC(CCCCN(Cc1ccc(Br)cc1)C(=O)CCCCCNC(=O)CN1CCN(CC(=O)O)CCN(CC(=O)O)CCN(CC(=O)O)CC1)C(=O)O)C(=O)O.[175Lu] (stereo not shown) [^175Lu-PSMA-R2],Clinical signs,[1]; 6-day observation period,No clinical signs were observed
same,Mortality,"[1]; single iv 0.2, 0.6 and 2.0 mg/kg",No deaths occurred
same,"Effects on behavioral, neurologic or autonomic parameters (Irwin)","[1]; single iv 0.2, 0.6 and 2.0 mg/kg, up to 24 h post-dose",did not induce any effects; also recorded: No effects
same,"Changes in heart rate, arterial blood pressure or electrocardiographic activity",[2],"No relevant changes in heart rate, arterial blood pressure or electrocardiographic activity were observed at the tested doses in conscious mini pigs."
same,Hematology and clinical chemistry,[3]; high dose group (1.75 mg/kg),Some changes in hematology and clinical chemistry were observed in some animals
same,"Organ weights, macroscopic or microscopic changes",[3]; [7],No changes in the organ weights and no treatment-related macroscopic or microscopic changes
same,"Physical signs, ocular findings, electrocardiographic abnormalities",[3]; [7],"No treatment-related physical signs, ocular findings, nor electrocardiographic abnormalities"
same,Toxicity signs,"[3]; single iv 0.175, 0.583 and 1.75 mg/kg",did not induce signs of toxicity; also recorded: No relevant treatment-related toxicity signs
same,"Toxicity and revertant numbers, preliminary toxicity test","[4]; 10.0-1000 µg/plate, absence or presence of S9","Neither toxicity, nor relevant increases in revertant numbers"
same,"Toxicity and revertant numbers, Main Assay (plate incorporation)","[4]; 62.5-1000 µg/plate, absence or presence of S9","Neither toxicity, nor relevant increases in revertant numbers"
same,Induction of reverse mutation (conclusion),[4]; absence or presence of S9 metabolism,does not induce reverse mutation
same,fu (%) fraction unbound,[5]; 1 µg/mL,43.9± 5.1%
same,fu (%) fraction unbound,[5]; 5 µg/mL,45.0 ± 9.6%
same,"Plasma protein binding, assessment in words","[5]; human, plasma",non-highly bound
same,fu (%) fraction unbound,[6]; 1 µg/mL,41.1 ± 4.2%
same,fu (%) fraction unbound,[6]; 5 µg/mL,46.1 ± 12.5%
